Experiments:
[1] = Volume of hair switches by image analysis after soaking, ironing at 200° C. and washing (Example 1)
Procedure: Dark brown wavy #6 European hair switches were soaked for 30 minutes in solutions of 2% glyceraldehyde at its natural or spontaneous pH.
All switches were combed straight and were dried in drying cabinets. When dry the switches were ironed with 7 passes using straighteners at 200° C.
The switches were subsequently washed after 3 days with base shampoo and combed straight and dried in drying cabinets.
When dry the switches were combed and pictures taken. The volumes of the switches were measured using an image analysis kit.
If the switches are visually straight then the volume of the switches (actually the projection of the volume in mm^2 on to an image plane) is a measure of the straightness benefits of the treatment.

[2] = Volume of hair switches by image analysis after soaking and combing, no heat treatment (Example 3); details: 30 min soak; for volume of treated hair switches: combed straight, dried; for % benefit: water as control
From the text: Control switches were soaked in water.
When dry the switches were combed straight and pictures taken.

Row | Structure (SMILES) | % benefit after ironing + 1 wash ([1]; 2% glyceraldehyde solution, 30 min soak, 7 iron passes at 200° C., 1 wash, versus control) | % benefit after ironing + 2 washes ([1]; 2% glyceraldehyde solution, 30 min soak, 7 iron passes at 200° C., 2 washes, versus control) | Volume of treated hair switches after ironing + 2 washes ([1]; 2% glyceraldehyde solution, 30 min soak, 7 iron passes at 200° C., 3 day gap between washings) | Volume of treated hair switches after ironing + 1 wash ([1]; 2% glyceraldehyde solution, 30 min soak, 7 iron passes at 200° C., washed after 3 days with base shampoo) | straightness benefit (in words) ([1]; with heat treatment, after washing) | volume of treated hair switches [2] | % benefit [2]
1 | O=CC(O)CO (stereo not drawn) [Glyceraldehyde, glyceraldehyde] | 26.4% | 11.3% | 11191.17 mm^2 | 10927.15 mm^2 | durable straightness benefits | 12458 mm^2 | 21.6%
2 | NCCCC[C@H](N)C(=O)O [2% Lysine, lysine] |  |  |  |  |  | 9975 mm^2 | 37.2%
